Here are results for ten compounds from ChEMBL document CHEMBL1201862, “PubChem BioAssay data set” (2004).

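Values below derive from 48-hour exposures of cells grown in 96-well plates, with endpoints linearly interpolated between the two concentrations bracketing the appropriate inhibition level. At the GI50, growth is halved.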 Active and inactive are the calls of the source. No stated cut-off is given here; in the data, active = GI50 up to about 1.1 µM and inactive = higher.

Holding throughout (assay): inhibition of tumour cell growth, NCI panel, 48 h
Assay [1] deals with COLO 205.
Assay [2] has as its system EKVX.
The subject of assay [3] is HCT-116.
The subject of assay [4] is K562.
In assay [5] the test system is KM12.
Assay [6] has as its system LOX IMVI.
For assay [7], the system named is M14.
For assay [8], the system named is NCI-H522.
Assay [9] deals with RPMI-8226.
For assay [10], the system named is SF-268.
Assay [11] deals with SK-MEL-28.
The test system of assay [12] is SK-MEL-2.
Assay [13] relates to SN12C.
The subject of assay [14] is SNB-75.
Assay [15] concerns SW-620.
For assay [16], the system named is UACC-62.
Assay [17] relates to UO-31.
Assay [18] relates to HOP-62.
Assay [19] has as its system SF-295.
The test system of assay [20] is SK-OV-3.

Regarding `NNc1nc2ccccc2s1`, the GI50 in [1], in assay [2], in [3], in assay [4], in assay [5] and in assay [6] was > 100 µM (inactive) each time. The GI50 is > 100 µM (inactive) in assay [7]; > 100 µM (inactive) in assay [8]; 72.8 µM (inactive) in assay [9]; > 100 µM (inactive) in assay [10]; > 100 µM (inactive) in assay [11]; > 100 µM (inactive) in [12]. Besides, the GI50 in [13], in assay [14], in [15], in [16] and in assay [17] was > 100 µM (inactive) throughout.

As for `CN1CC2(CCCCC2)C(O)C12C=CCCC2` (centres undefined), the GI50 in [1], in assay [2], in [18], in assay [4], in [5] and in assay [6] was > 100 µM (inactive) in each case. In addition, the GI50 in [7], in [8], in assay [9], in assay [10], in assay [19] and in [11] was > 100 µM (inactive) in each case. Also, the GI50 in [12] was > 100 µM (inactive); in [20], > 100 µM (inactive); in assay [13], > 100 µM (inactive); in [14], 69.5 µM (inactive); in [15] it was > 100 µM (inactive); in assay [16], > 100 µM (inactive). Further, the GI50 in assay [17] is > 100 µM (inactive).

In the case of `COc1ccc(/C(Cl)=C(\C=O)c2ccc(Cl)c(Cl)c2)cc1OC`, the GI50 in assay [1] is 16.7 µM (inactive); in [2], 9.53 µM (inactive); in assay [3], 4.18 µM (inactive); in [18], 16.3 µM (inactive); in [4], 3.87 µM (inactive); in [6], 3.37 µM (inactive). For the same compound, the GI50 is 7.1 µM (inactive) in assay [7]; 2.36 µM (inactive) in [8]; 2.08 µM (inactive) in assay [9]; 3.59 µM (inactive) in [10]; 3.79 µM (inactive) in assay [19]; 13.4 µM (inactive) in assay [11]. The GI50 in [12] is 1.87 µM (inactive); in [20], 38.5 µM (inactive); in assay [13], 4.28 µM (inactive); in assay [14] it was 0.294 µM (active); in assay [15] it was 4.12 µM (inactive); in [16], 4.63 µM (inactive). In assay [17], the GI50 is 7.33 µM (inactive).

Consider `CN1c2ccccc2NC(CC(=O)O)C2CC=CN21` (centres undefined), for which the GI50 in assay [1], in [2], in assay [18], in [4], in assay [5] and in assay [6] was > 100 µM (inactive) each time. Moreover, the GI50 in assay [7], in assay [8], in assay [9], in assay [10], in assay [19] and in [11] was > 100 µM (inactive) each time. Also, the GI50 in assay [12], in assay [20], in assay [13], in assay [14], in assay [15] and in assay [16] was > 100 µM (inactive) in each case. The GI50 in [17] was > 100 µM (inactive).

In the case of `Cc1cc(-c2ccccc2)nc(Nc2cc3ccccc3[nH]2)n1`, the GI50 in [1] was > 100 µM (inactive); in [2] it was 89.3 µM (inactive); in [3], > 100 µM (inactive); in assay [18], > 100 µM (inactive); in assay [4] it was > 100 µM (inactive); in assay [5], > 100 µM (inactive). Further, the GI50 in assay [6], in [7], in assay [8], in assay [9], in assay [10] and in assay [19] was > 100 µM (inactive) throughout. Besides, the GI50 in assay [11], in assay [12], in assay [20], in assay [13], in assay [15] and in [16] was > 100 µM (inactive) throughout. Besides, the GI50 in [17] is > 100 µM (inactive).

Take `COc1cc(C(C)O)c[n+](Cc2ccccc2)c1` (centres undefined): the GI50 in assay [1], in assay [2], in [3], in [18], in [4] and in assay [5] was > 100 µM (inactive) each time. For the same compound, the GI50 in assay [6], in [7], in [8], in [9], in [10] and in assay [19] was > 100 µM (inactive) in each case. The GI50 in assay [11] is > 100 µM (inactive); in [12], > 100 µM (inactive); in assay [20], > 100 µM (inactive); in [13] it was > 40.5 µM (inactive); in [14], > 100 µM (inactive); in [15] it was > 100 µM (inactive). Besides, the GI50 in assay [16] and in [17] was > 100 µM (inactive) in each case.

For `CCOC(=O)C(C)N1C(=O)c2ccccc2S1(=O)=O` (centres undefined), the GI50 in assay [1], in assay [2], in assay [3], in [18], in assay [4] and in [5] was > 100 µM (inactive) in each case. Further, the GI50 in [6], in [8], in [9], in [10], in [19] and in assay [11] was > 100 µM (inactive) throughout. The GI50 in assay [12], in [20], in assay [13], in assay [14], in assay [15] and in [16] was > 100 µM (inactive) throughout. Also, the GI50 in assay [17] is > 100 µM (inactive).

For `Cc1c2cnccc2c(C)c2c1c1ccccc1n2CCCCCCCl`, the GI50 in assay [1] is 28.2 µM (inactive); in assay [2], > 50 µM (inactive); in assay [3], 23.6 µM (inactive); in assay [18], > 50 µM (inactive); in [4], 18.1 µM (inactive); in assay [5], 29.9 µM (inactive). Further, the GI50 in [6] was 30.4 µM (inactive); in assay [8] it was > 50 µM (inactive); in assay [9], 13.2 µM (inactive); in assay [10], > 45 µM (inactive); in assay [19], 48.9 µM (inactive); in assay [11] it was > 48.4 µM (inactive). Moreover, the GI50 was > 50 µM (inactive) in assay [12]; > 50 µM (inactive) in assay [20]; > 50 µM (inactive) in [13]; > 31.6 µM (inactive) in assay [14]; 30 µM (inactive) in [15]; > 50 µM (inactive) in assay [16]. In addition, the GI50 in assay [17] is > 47.5 µM (inactive).

`COC(=O)[C@]12CC[C@H]3CN(C(=O)OCc4ccccc4)[C@H]([C@H]31)[C@H](C(=O)OCC[Si](C)(C)C)N2S(=O)(=O)c1ccc(C)cc1`: the GI50 in [1] was 17.5 µM (inactive); in assay [2] it was 89.9 µM (inactive); in assay [3], 23 µM (inactive); in assay [18], > 100 µM (inactive); in [4] it was 15.3 µM (inactive); in [5] it was 97.3 µM (inactive). In addition, the GI50 in assay [6] was 94.4 µM (inactive); in assay [7] it was 26.5 µM (inactive); in assay [8], > 100 µM (inactive); in assay [9], 8.45 µM (inactive); in [10], > 100 µM (inactive); in [19], 29 µM (inactive). Further, the GI50 is > 100 µM (inactive) in [11]; 96.4 µM (inactive) in assay [12]; > 100 µM (inactive) in assay [20]; > 100 µM (inactive) in assay [13]; > 100 µM (inactive) in assay [15]; > 100 µM (inactive) in [16]. Further, the GI50 in assay [17] is 30.3 µM (inactive).

Take `CCCCCCCC/C=C\CCCCCCCCCCCC(=O)O` [ERUCIC ACID]: the GI50 was 20.2 µM (inactive) in [1]; 34 µM (inactive) in assay [2]; 22.3 µM (inactive) in [3]; 30.1 µM (inactive) in assay [18]; 22.1 µM (inactive) in assay [4]; 22.3 µM (inactive) in assay [5]. Moreover, the GI50 in assay [6] is 29.4 µM (inactive); in assay [8], 19.8 µM (inactive); in [9], 45.6 µM (inactive); in [10], 52.4 µM (inactive); in [19], 35.3 µM (inactive); in assay [11], 32.7 µM (inactive). Besides, the GI50 in assay [12] is 18 µM (inactive); in assay [20] it was > 85.9 µM (inactive); in [13] it was 32.6 µM (inactive); in [14], 37 µM (inactive); in [15], 31.6 µM (inactive); in [16] it was 27.5 µM (inactive). Also, the GI50 in assay [17] is 74 µM (inactive).
